{
  "source": "paper PMC9496346",
  "about": "“Controversial Role of Transferrin in the Transport of Ruthenium Anticancer Drugs” (Biomolecules, 2022)",
  "key": {"[1]": {"experiment": "Decomposition of KP1019 in cell culture medium", "type": "in vitro ADME", "details": "310 K; reported previously and confirmed in this work"}, "[2]": {"system": "T1, recombinant human transferrin receptor 1 (TfR1)", "T1 construct": "extracellular domain (Cyst89-Phe760), (His)6-tagged at the N-terminus; purchased Sino Biological, Beijing, China (TfR1); Sigma (human serum, Cat. No. H4522, as source of Tf) 11020-H07H", "experiment": "BLI of Tf–TfR1 binding in dilute human serum pre-treated with metal complexes", "details": "serum incubated with 100 μM Ru complex or 60 μM Fe(III) as citrate", "method": "The effects of Ru complexes on the Tf cycle were determined by BLI using previously developed protocols. The instrument used was a single-channel BLItz analyser (ForteBio, Menlo Park, CA, USA) with a tube holder (250 µL solution volume) and Ni(II)–nta coated optical probes held at 295 ± 1 K. Measurements used the Advanced Kinetics mode. […] Solutions of metal–Tf adducts (typical final Tf concentrations 150 nM or 1.0 µM) were prepared in the binding buffer (Section 2.1). The pH 7.4 binding buffer was used for Tf binding and dissociation from the probe, and the pH 5.6 buffer (Section 2.1) was used to mimic the endosomal step of the Tf cycle. Metal–Tf solutions (A1–A9 in Table 1) were diluted 100–400-fold, cell culture media were diluted 30-fold, and human serum samples were diluted 200-fold with the binding buffer immediately before the BLI measurements. All BLI data were background corrected by using data from buffer only runs with the same TfR1-loaded optical probe. Consistent BLI results were obtained in at least two independent measurements, using different probes and different batches of Tf solutions. Calculations of the Tf–TfR1 binding constants were performed using the 1:1 binding model (BLItz software, Version 1.1, Forte-Bio 2013), which can be used as a reasonable approximation of the physiological 2:2 Tf–TfR1 binding mechanism at low Tf concentrations. […]\n(b) BLI response curves for dilute human serum samples in the presence or absence of metal complexes. Intact commercial human serum (Sigma H4522) was incubated with Fe(III)-citrate (60 µM) or with Ru complexes (100 µM) for 4 h at 310 K, then diluted 200-fold (to [Tf] ~ 150 nM) with the binding buffer (20 mM HEPES, 25 mM NaHCO3, 140 mM NaCl, pH = 7.4), and analyzed with the TfR1-loaded BLI probe. Designations of the steps in Tf cycle (A–D) correspond to those in Figure 1d-f, main text. Calculated KD values (1:1 binding model, BLItz software) were as follows: 8.0 nM (serum + Fe(III) citrate); or 28 ± 2 nM (serum in the presence or absence of Ru complexes). Typical anticancer Ru complexes, NAMI-A, KP1019 and RAPTA-C, were synthesized and characterized previously in the Lay group.\n(1 picture or pasted object on this page, not shown here)"}},
  "data": [
    {"smiles": "[Cl-].[Cl-].[Cl-].[Cl-].[Ru+3].c1ccc2[nH][nH+]cc2c1.c1ccc2[nH]ncc2c1.c1ccc2[nH]ncc2c1", "note": "[KP1019, (IndH)[Ru^IIICl4(Ind)2]]", "values": [
      {"measurement": "Decomposition in cell culture medium (time)", "setting": "[1]", "value": "within several hours"},
      {"measurement": "Effect on Tf–TfR1 binding in whole human serum", "setting": "[2]", "value": "did not have any effect"}
    ]}
  ]
}
